# From patent US20250195660A1, “INACTIVATING BACTERIA WITH ELECTRIC PULSES AND ANTIBIOTICS” (Purdue Research Foundation, priority 2018, published 2025)
# How the values were obtained:
# [1] = test system: Esherichia coli (gram negative bacterium number 25922); experiment: Inactivation of E. coli by 300 ns electric pulses combined with antibiotic (CFU plating); type: cell-based, Escherichia coli
# Method: Equipment. Used was a capacitor based Blumlein pulse generator with a spark gap switch to produce trapezoidal EPs of 300 ns duration at the peak with rise and fall times close to 50 ns. Multiple pulses were delivered at a frequency of 1 Hz.
# The samples were treated in a standard electroporation cuvette (Dot Scientific) whose resistance must match the pulse generator's impedance to prevent pulse reflection. […] Used were 2 mm cuvettes to ensure consistency between tests, and the applied voltage was measured across the cuvette using a LeCroy PPE 20 kV high voltage probe with a 1000:1 attenuation feeding into a TeleDyne LeCroy Waverunner 6 Zi Oscilloscope capable of measuring signals up to 4 GHz. Assuming a purely parallel plate geometry with minimal fringing gives an electric field E=V/d, where V is the peak voltage of the applied pulse and d is the gap distance.
# Sample Preparation. These experiments assessed Stapphylococcus aureus (gram positive bacterium number 25923) from ATCC and Esherichia coli (gram negative bacterium number 25922) inoculated in luria broth (LB Broth Lennox, powder microbial growth medium. SIGMA-ALDRICH) by taking 8 mL of broth in a 50 mL sterile conical tube and incubating in a shaker for 20 h at 37° C. The sample was then diluted with fresh Luria broth until attaining an optical density of 0.25 for 100 μL on a photospectrometer (Molecular Devices) for a wavelength of 562 nm as measured in a 96-well plate. The optical density, which varies with growth or tube volume, was determined experimentally and set between 1×10^8 and 1.5×10^8 colony forming units (CFUs)/mL for the samples to be pulsed. These samples were then plated at dilutions between 10-6 and 100 (no dilution) depending on the effectiveness of the pulse treatments.
# Electric Pulse Treatment Protocol. […] Although no consensus exists on a universal scaling law for applied EP “dose,” we fixed the energy density
# [formula] • where N is the number of pulses and τ is the pulse duration. Fixing U for E=40, 30, and 20 kV/cm gave N=250, 445, and 1000 pulses, respectively. Cultures were plated as described below.
# Cuvettes were filled with 365 μL of sample (sufficient to just cover the electrodes) and then 250 μL of molecular biology grade mineral oil was placed on top.
# Added were 0.2, 2, and 20 μg/mL of each drug to the initial bacterial dilutions prior to pulsing. Samples were immediately placed on ice to minimize cell division and reduce variability. These aliquots were also used to plate individual unpulsed controls for each drug concentration.
# Plating. Plating was done on standard disposable tissue culture Petri dishes from VWR (15 cm diameter, 10 mm height) and covered with 10 mL of agar in luria broth (Agar, microbiology tested powder, SIGMA-ALDRICH), which was prepared by adding 20 g of LB lennox (SIGMA-ALDRICH) and 15 g/L of agar to water and then autoclaved.
# Plated were samples at dilutions of 10^−6 and 10^−3 for low and high electric field treatments, respectively, and at 10^−6 and 10^−5 for controls All samples containing 100 μL of pulsed or diluted cultures were plated on LB agar plates and counted after overnight incubation at 37° C.
# Pulsing with drugs: bacterial samples of both gram-positive S. aureus and gram-negative E. coli strains were pulsed in a solution with 0.2, 2, and 20 μg/mL of tobramycin and compared to an un-pulsed drug-exposed control. Pulsing and plating were performed to ensure that the drug exposure time of the bacteria was approximately fifteen minutes.
# [2] = test system: carbapenem-resistant Escherichia coli (ATCC BA-2452, NDM-1 positive); experiment: Inactivation of carbapenem-resistant E. coli by 300 ns electric pulses and/or antibiotics (CFU plating); type: cell-based; conditions: 30 kV/cm NSEPs + 20 μg/mL
# From the text: Except for rifampicin, the five other antibiotics in these examples primarily target gram-positive bacteria and are largely ineffective or not used against gram-negative bacteria in a clinical setting.
# A Blumlein pulsed generator consisting of two lines comprised of twelve 2000 pF capacitors connected by inductors produced 300 ns EPs with rise-times of 30 ns and fall-times of 35 ns at a repetition frequency of 1 Hz (12). The EPs were applied to a standard 2 mm gap electroporation cuvette (Dot Scientific R) filled with a solution containing the microorganisms. Used was a Luria broth of 0.5% salinity (5 grams of NaCl/Liter) for the solution to electrically match the resistance of the sample with the impedance of the pulse generator (11Ω) to prevent signal reflection. The voltage measurements were taken using a LeCroy PPE 20 kV high voltage probe with a 1000:1 attenuation recorded by a TeleDyne LeCroy® Waverunner 6 Zi Oscilloscope with a bandwidth of 4 GHZ.
# The gram-negative strains included a carbapenem-resistant Escherichia coli (ATCC® BA-2452TM, New Delhi metallo-beta-lactamase NDM-1 positive.), Klebsiella pneumoniae (ATCC® BAA-2146TM NDM-I positive), and a gentamicin, streptomycin and sulfonamide resistant Pseudomonas aeruginosa (BEI Resources NR-31040). Assessed was the gram-positive strain of methicillin resistant Staphylococcus aureus (USA300-0114 strain), which is also resistant to erythromycin and tetracycline. Samples were cultured in Luria broth (LB Broth Lennox, powder microbial growth medium, SIGMA-ALDRICH®) by taking 25 mL of broth in a 50 mL sterile conical tube and incubating in a shaker for 16 h at 37° C. Samples were diluted 50% by adding 25 mL media to the incubated sample as we plated controls for each experiment and condition.
# Samples were treated in 2 mm gap cuvettes containing 365 μL of sample between the electrodes, with bio-grade mineral oil added on top of the electrode plates to prevent arcing.
# To establish a common baseline for comparing different NSEP parameters, we fixed the energy density U delivered to the cuvettes according to Formula (1) (above). For 300 ns EPs, 500 EPs at 20 kV/cm and 222 EPs at 30 kV/cm delivered the same energy to the sample.
# Tissue culture Petri dishes from VWR R (15 cm diameter, 10 mm height) were utilized for plating. Each plate was covered with 15 mL of Luria broth (Agar, microbiology tested powder, SIGMA-ALDRICH®), which was prepared by adding 20 g of LB Lennox (SIGMA-ALDRICH) and 15 g/L of agar to water prior to being autoclaved. The salinity of the agar was the same as the LB (0.5% NaCl) to minimize additional environmental stressors on the bacteria.
# Removed was 20 μL from each cuvette and added to 180 μL of PBS in a 96-well dish in triplicate. Each well was then diluted by a ratio of 10:1 five additional times by taking 20 μL of the diluted sample into subsequent wells using multi-channel pipettes (using fresh tips for each dilution). Plated were the six dilutions of each sample two times each by adding 4 μL from each well onto the Petri dish using a multi-channel pipette, which allowed the plating of all three replicates on the same plate to achieve n=6. These plates were then cultured overnight in an incubator at 37° C., and counted the next day.
structure (smiles),measurement,setting,value
CO[C@H]1/C=C/O[C@@]2(C)Oc3c(C)c(O)c4c(O)c(c(/C=N/N5CCN(C)CC5)c(O)c4c3C2=O)NC(=O)/C(C)=C\C=C\[C@H](C)[C@H](O)[C@@H](C)[C@@H](O)[C@@H](C)[C@H](OC(C)=O)[C@@H]1C [rifampicin],log reduction of E. coli,"[1]; 20 μg/mL + 445 pulses of 30 kV/cm, consistent with complete sterilization",> 9 log
same,"synergy (additional kill off) compared to just the drug, E. coli","[1]; 20 μg/mL, EPs vs no EPs",4 log
same,additional log-reduction of E. coli compared to pulsing alone,[1]; EPs + 2 and 20 μg/mL,1.5 log
same,log reduction of E. coli,[2],6 log
